# Measured values published in US11617850B2, “Delivery systems and methods for electric plasma synthesis of nitric oxide” (The General Hospital Corporation, priority 2016, dated 2023).
# Columns and labels:
# [1] = system: awake sheep with acute pulmonary hypertension, due to U46619 infusion; test: Inhaled electrically generated NO in awake sheep with acute pulmonary hypertension due to U46619 infusion; format: in vivo
# Text: Animal studies were approved by the Institutional Animal Care and Use Committee of Massachusetts General Hospital (Boston, Mass.). The NO generator 102 of the NO generation system 100 was coupled to a tracheostomy tube in a spontaneously breathing awake 35 kg sheep.
# To induce pulmonary hypertension, a potent pulmonary vasoconstrictor U46619 (Cayman Chemical, Ann Arbor, Mich.), the analog of the endoperoxide prostaglandin H2, was infused intravenously to increase pulmonary arterial pressure (PAP) to 30 mmHg. The pulmonary arterial pressure and PAP was continuously monitored using a Gould 6600 amplifier system (Gould Electronics, Inc., Eastlake, Ohio).
# In turn, the electric plasma discharge of the electrodes supplied NO gas to the spontaneously breathing awake sheep during those 0.8 seconds.
# Turning to FIGS. 11 and 12, the above-described operation of the NO system 200 (i.e., triggering the NO generator 102 for approximately 0.8 second during early inspiration, for example, 20 milliseconds after commencement of inspiration) was implemented during a NO exposure time 700. Prior to and following the NO exposure time 700, a baseline was generated. The NO generator 102 was configured to output approximately 20 ppm of NO for three different runs (FIG. 11) and was configured to output 5 ppm of NO for another run (FIG. 12).
# In addition to PAP, the arterial oxygen saturation was also measured as a function of time in the awake sheep. […] Lastly, the relative arterial oxygen saturation was calculated as a function of time for all four periods of NO inhalation.
# [2] = system: mice (C57BL6 male WT); test: Mice breathing air or electrically generated 50 ppm NO in air for 28 days; format: in vivo; details: 50 ppm NO in air
# Text: A second chamber 802 was supplied with 50 ppm of NO gas in air, generated by a spark plug generator using platinum-iridium electrodes and subsequently scavenged using 75 g Ca(OH). A plurality of mice (C57BL6 male WT) breathed the NO laden air for the same 28 day period. During the 28 day test, humidity, CO2, O2, NO, and NO2 were monitored intermittently.
# Throughout the 28 day test, the mice were weighed in weekly intervals to track a change in the body weight of the mice throughout the 28 day test. […] Once the 28 day test was complete, lung specimens from the mice were analyzed using a high resolution magnetic sector field inductively coupled mass spectrometer (Thermo Fisher, Bremen, Germany).
compound,measurement,setting,value
"[N]=O [NO, nitric oxide]",arterial oxygen saturation (SaO2) during the NO exposure time,[1]; 5 ppm NO inhaled,generally constant
same,effect on pulmonary artery pressure (PAP) during the NO exposure time,"[1]; 5 ppm NO inhaled, one run",does not show a measurable effect
same,arterial oxygen saturation (SaO2) during the NO exposure time,[1]; 20 ppm NO inhaled,increases
same,improvement of relative arterial oxygen saturation during the NO exposure time,"[1]; 20 ppm NO inhaled, three trials",approximately 10%
same,"lung histology (H&E staining of larynx, trachea, main bronchus, lung tissues)",[2],no evidence of lung inflammation or pathology
same,iridium and platinum in lung specimens versus control mice (ICP mass spectrometry),"[2]; platinum-iridium electrodes, Ca(OH) scavenger",no detectable difference
same,body weight gain versus mice breathing air,[2]; weighed weekly,did not differ
